Test results from US12239705B2, “Therapeutic mitigation of epithelial infection” (priority 2018, dated 2025).

Experiments:
[1] = test system: vaccinia virus; assay: Vaccinia virus plaque formation in IL-4/13-treated PHFK exposed to P6; type: cell-based; settings: PHFK in IL-4 and IL-13; 50 or 200 nM; 200 pfu VV; three days post infection; n=7 donors
[2] = test system: PHFK cells; assay: TEER barrier function of IL-4/13-treated PHFK exposed to P6; type: cell-based, human; settings: PHFK in IL-4 and IL-13 for two days; 50 or 100 nM; versus DMSO control
Experimental: TEER was taken daily. Data was normalized to Th2 treated samples (n=5-7 donors for TEER (SEM)). Significance was tested versus a DMSO control.

[3] = test system: PHFK cells; assay: Cell viability of differentiated PHFK by LDH and WST-1 assay; settings: PHFK differentiated 2 days; 24 hours
Experimental: Briefly, PHFK cells were differentiated for 2 days in the same manner described above. […] Cell viability was measured by LDH and WST-1 assay 24 hours later.

CC(C)(C)c1nc2c3cc[nH]c(=O)c3c3cc(F)ccc3c2[nH]1 [P6, Pyridone 6]
keratinocyte susceptibility to viral infection (plaque number normalized to IL-4/13 treated controls) [1]: reversed keratinocyte susceptibility to viral infection in a dose dependent manner
barrier function (TEER normalized to Th2 treated samples) [2]: improved barrier function in keratinocytes in a dose dependent manner
concentration not toxic to keratinocytes (LDH and WST-1) [3]: ≥ 1000 nM
